Assay results: paper PMC3087488 (Journal of Oncology, 2011)
Marks after values point to notes of the source that are not given here.

Assay: adverse events in patients (CTCAE version 3.0)
Type: in vivo, human
Details: for Any motesanib-related AE, Grade 5 / Motesanib-related AE: Anorexia / Motesanib-related AE: Constipation / Motesanib-related AE: Deep vein thrombosis / Motesanib-related AE: Dehydration / Motesanib-related AE: Dermatitis acneiform / Motesanib-related AE: Diarrhea / Motesanib-related AE: Erythema / Motesanib-related AE: Fatigue / Motesanib-related AE: Hypertension / Motesanib-related AE: Nausea / Motesanib-related AE: Pulmonary embolism / Motesanib-related AE: Rash / Motesanib-related AE: Vomiting / Motesanib-related Arterial thromboembolic events (all grades) / Motesanib-related Arterial thrombosis, Grade 3 / Motesanib-related Arterial thrombosis, Grade 4 / Motesanib-related Cerebrovascular accident, Grade 2 / Motesanib-related Deep vein thrombosis, Grade 2 / Motesanib-related Deep vein thrombosis, Grade 3 / Motesanib-related Gallbladder disorder, Grade 1 / Motesanib-related Hemorrhagic events, Grade 1 / Motesanib-related Jugular vein thrombosis, Grade 2 / Motesanib-related Neutropenia, Grade 3 / Motesanib-related Pulmonary embolism, Grade 4 / Motesanib-related Pulmonary embolism, Grade 5 / Motesanib-related Venous thromboembolic events (all grades) / Patients with any motesanib-related AE / Any motesanib-related AE, Grade 3 / Any motesanib-related AE, Grade 4: gemcitabine/cisplatin
Protocol: Adverse events were recorded throughout the study and graded (including DLTs) according to the Common Terminology Criteria for Adverse Events, version 3.0. Samples for assessment of hematology, blood chemistry, urinalysis, and thyroid function were collected on day 1 of each cycle.

[1] = motesanib 75 mg QD (n = 6) + panitumumab
[2] = motesanib 100 mg QD (n = 6) + panitumumab
[3] = motesanib 125 mg QD (n = 11) + panitumumab

With `CC1(C)CNc2cc(NC(=O)c3cccnc3NCc3ccncc3)ccc21` [motesanib] the “Any motesanib-related AE, Grade 5” value [1] was 0 (0) n (%), the “Motesanib-related AE: Anorexia” value [1] was 0 (0) n (%) and the “Motesanib-related AE: Constipation” value [1] was 2 (33) n (%). For the same compound, the “Motesanib-related AE: Deep vein thrombosis” value [1] was 0 (0) n (%), the “Motesanib-related AE: Dehydration” value [1] was 1 (17) n (%) and the “Motesanib-related AE: Dermatitis acneiform” value [1] was 2 (33) n (%). For the same compound, the “Motesanib-related AE: Diarrhea” value [1] was 1 (17) n (%), the “Motesanib-related AE: Erythema” value [1] was 2 (33) n (%) and the “Motesanib-related AE: Fatigue” value [1] was 2 (33) n (%). For the same compound, the “Motesanib-related AE: Hypertension” value [1] was 4 (67) n (%), the “Motesanib-related AE: Nausea” value [1] was 5 (83) n (%) and the “Motesanib-related AE: Pulmonary embolism” value [1] was 2 (33) n (%). For the same compound, the “Motesanib-related AE: Rash” value [1] was 1 (17) n (%), the “Motesanib-related AE: Vomiting” value [1] was 3 (50) n (%) and the “Motesanib-related Arterial thromboembolic events (all grades)” value [1] was 0 (0) n (%). The “Motesanib-related Arterial thrombosis, Grade 3” value [1] was 0 (0) n (%), the “Motesanib-related Arterial thrombosis, Grade 4” value [1] was 0 (0) n (%) and the “Motesanib-related Cerebrovascular accident, Grade 2” value [1] was 0 (0) n (%). The “Motesanib-related Deep vein thrombosis, Grade 2” value [1] was 0 (0) n (%), the “Motesanib-related Deep vein thrombosis, Grade 3” value [1] was 0 (0) n (%) and the “Motesanib-related Gallbladder disorder, Grade 1” value [1] was 1 (17) n (%). The “Motesanib-related Hemorrhagic events, Grade 1” value [1] was 0 (0) n (%), the “Motesanib-related Jugular vein thrombosis, Grade 2” value [1] was 1 (17) n (%) and the “Motesanib-related Neutropenia, Grade 3” value [1] was 0 (0) n (%). For the same compound, the “Motesanib-related Pulmonary embolism, Grade 4” value [1] was 2 (33) n (%), the “Motesanib-related Pulmonary embolism, Grade 5” value [1] was 0 (0) n (%) and the “Motesanib-related Venous thromboembolic events (all grades)” value [1] was 3 (50) n (%). The “Patients with any motesanib-related AE” value [1] was 6 (100) n (%), the “Any motesanib-related AE, Grade 3” value [2] was 1 (17) n (%) and the “Any motesanib-related AE, Grade 4” value [2] was 2 (33) n (%). For the same compound, the “Any motesanib-related AE, Grade 5” value [2] was 0 (0) n (%), the “Motesanib-related AE: Anorexia” value [2] was 2 (33) n (%) and the “Motesanib-related AE: Constipation” value [2] was 0 (0) n (%). The “Motesanib-related AE: Deep vein thrombosis” value [2] was 1 (17) n (%), the “Motesanib-related AE: Dehydration” value [2] was 0 (0) n (%) and the “Motesanib-related AE: Dermatitis acneiform” value [2] was 0 (0) n (%). The “Motesanib-related AE: Diarrhea” value [2] was 0 (0) n (%), the “Motesanib-related AE: Erythema” value [2] was 1 (17) n (%) and the “Motesanib-related AE: Fatigue” value [2] was 2 (33) n (%). For the same compound, the “Motesanib-related AE: Hypertension” value [2] was 2 (33) n (%), the “Motesanib-related AE: Nausea” value [2] was 2 (33) n (%) and the “Motesanib-related AE: Pulmonary embolism” value [2] was 2 (33) n (%). The “Motesanib-related AE: Rash” value [2] was 0 (0) n (%), the “Motesanib-related AE: Vomiting” value [2] was 1 (17) n (%) and the “Motesanib-related Arterial thromboembolic events (all grades)” value [2] was 0 (0) n (%). For the same compound, the “Motesanib-related Arterial thrombosis, Grade 3” value [2] was 0 (0) n (%), the “Motesanib-related Arterial thrombosis, Grade 4” value [2] was 0 (0) n (%) and the “Motesanib-related Cerebrovascular accident, Grade 2” value [2] was 0 (0) n (%). For the same compound, the “Motesanib-related Deep vein thrombosis, Grade 2” value [2] was 0 (0) n (%), the “Motesanib-related Deep vein thrombosis, Grade 3” value [2] was 1 (17)^b n (%) and the “Motesanib-related Gallbladder disorder, Grade 1” value [2] was 0 (0) n (%). The “Motesanib-related Hemorrhagic events, Grade 1” value [2] was 1 (17) n (%), the “Motesanib-related Jugular vein thrombosis, Grade 2” value [2] was 0 (0) n (%) and the “Motesanib-related Neutropenia, Grade 3” value [2] was 0 (0) n (%). The “Motesanib-related Pulmonary embolism, Grade 4” value [2] was 2 (33)^b n (%), the “Motesanib-related Pulmonary embolism, Grade 5” value [2] was 0 (0) n (%) and the “Motesanib-related Venous thromboembolic events (all grades)” value [2] was 2 (33) n (%). The “Patients with any motesanib-related AE” value [2] was 4 (67) n (%), the “Any motesanib-related AE, Grade 3” value [3] was 6 (55) n (%) and the “Any motesanib-related AE, Grade 4” value [3] was 3 (27) n (%). For the same compound, the “Motesanib-related AE: Anorexia” value [3] was 4 (36) n (%), the “Motesanib-related AE: Constipation” value [3] was 2 (18) n (%) and the “Motesanib-related AE: Deep vein thrombosis” value [3] was 2 (18) n (%). For the same compound, the “Motesanib-related AE: Dehydration” value [3] was 3 (27) n (%), the “Motesanib-related AE: Dermatitis acneiform” value [3] was 2 (18) n (%) and the “Motesanib-related AE: Diarrhea” value [3] was 7 (64) n (%). The “Motesanib-related AE: Erythema” value [3] was 0 (0) n (%), the “Motesanib-related AE: Fatigue” value [3] was 6 (55) n (%) and the “Motesanib-related AE: Hypertension” value [3] was 5 (45) n (%). For the same compound, the “Motesanib-related AE: Nausea” value [3] was 4 (36) n (%), the “Motesanib-related AE: Pulmonary embolism” value [3] was 3 (27) n (%) and the “Motesanib-related AE: Rash” value [3] was 2 (18) n (%). For the same compound, the “Motesanib-related AE: Vomiting” value [3] was 2 (18) n (%), the “Motesanib-related Arterial thromboembolic events (all grades)” value [3] was 1 (9) n (%) and the “Motesanib-related Arterial thrombosis, Grade 3” value [3] was 1 (9) n (%). For the same compound, the “Motesanib-related Arterial thrombosis, Grade 4” value [3] was 0 (0) n (%), the “Motesanib-related Cerebrovascular accident, Grade 2” value [3] was 0 (0) n (%) and the “Motesanib-related Deep vein thrombosis, Grade 2” value [3] was 0 (0) n (%). For the same compound, the “Motesanib-related Deep vein thrombosis, Grade 3” value [3] was 2 (18)^c n (%), the “Motesanib-related Gallbladder disorder, Grade 1” value [3] was 0 (0) n (%) and the “Motesanib-related Hemorrhagic events, Grade 1” value [3] was 3 (27) n (%). For the same compound, the “Motesanib-related Jugular vein thrombosis, Grade 2” value [3] was 0 (0) n (%), the “Motesanib-related Neutropenia, Grade 3” value [3] was 0 (0) n (%) and the “Motesanib-related Pulmonary embolism, Grade 4” value [3] was 3 (27)^c n (%). The “Motesanib-related Pulmonary embolism, Grade 5” value [3] was 0 (0) n (%), the “Motesanib-related Venous thromboembolic events (all grades)” value [3] was 3 (27) n (%) and the “Patients with any motesanib-related AE” value [3] was 11 (100) n (%). For the same compound, the “Any motesanib-related AE, Grade 5” value (motesanib 125 mg QD (n = 11) + panitumumab, sudden death) was 1 (9)^a n (%), the “tolerability of the combination treatment” value (motesanib, panitumumab, and gemcitabine/cisplatin at the doses and schedule administered) was “not tolerable” and the “patients with motesanib-related adverse events” value (of the 33 patients who received motesanib (88%)) was 29 patients. For the same compound, the “deaths considered related to motesanib and panitumumab” value (pulmonary embolism, 50 mg QD, and sudden death, 125 mg QD, within 30 days of treatment) was “Two”, the “grade 3/4 arterial thrombosis” value (treatment regimen as a whole) was 2 patients and the “grade 3 deep vein thrombosis” value (treatment regimen as a whole) was 3 patients. For the same compound, the “grade 4 pulmonary embolism” value (treatment regimen as a whole) was 8 patients.
